Source: US20260001914A1, “MACROCYCLIC PEPTIDES TARGETING KRAS” (Merck Sharp & Dohme LLC, priority 2022, published 2026)
Like-named read-outs stand apart in the source and are kept apart here. *1 amine or outer side, *2 acyl side, *3 side chain or, on linkers, in order; H or OH if unused. Where a SMILES comes first, the peptide text is derived from it. Bridges are numbered along the chain shown (N, C = ends). [ ]: non-standard residue; d: D form. Phe(4-guanidino) = N=C(N)Nc1ccc(C[C@H](N)C(=O)O)cc1; X78 = Nc1ccnc2ccc(C[C@H](N[*:1])C(=O)[*:2])cc12; Ala(pyrimidin-5-yl) = N[C@@H](Cc1cncnc1)C(=O)O; X36 = CN([C@@H](Cc1cnn(C)c1)C(=O)[*:2])[*:1]; NMePhe(3-Me) = CN[C@@H](Cc1cccc(C)c1)C(=O)O; X33 = O=C([C@H](Cc1ccnc(F)c1F)N[*:1])[*:2]; Leu(4,5-dehydro) = C=C(C)C[C@H](N)C(=O)O; NMeNva(5,5-F2) = CN[C@@H](CCC(F)F)C(=O)O; X24 = O=C([C@H](Cc1ccncc1Cl)N[*:1])[*:2]; X69 = O=C([C@H]1CC[C@@H](N[*:1])C1)[*:2]; X11 = CC(C)(F)CC[C@H](N[*:1])C(=O)[*:2]; X13 = O=C([C@H](Cc1ccncc1F)N[*:1])[*:2]; X46 = O=C([C@H](Cc1cccnc1F)N[*:1])[*:2]; Arg(Me2s) = CN=C(NC)NCCC[C@H](N)C(=O)O; Phe(4-F) = N[C@@H](Cc1ccc(F)cc1)C(=O)O; 1Nal = N[C@@H](Cc1cccc2ccccc12)C(=O)O; Ala(4-THP) = N[C@@H](CC1CCOCC1)C(=O)O; NHCH2CH2SCH2CO = O=C(CSCCN[*:1])[*:2]; Ala(cPent) = N[C@@H](CC1CCCC1)C(=O)O; Phe(2-F) = N[C@@H](Cc1ccccc1F)C(=O)O; NMe3Pal = CN[C@@H](Cc1cccnc1)C(=O)O; X1 = O=C(C12CC(CN[*:1])(C1)C2)[*:2]; Ala(cPr) = N[C@@H](CC1CC1)C(=O)O; NMeF = CN[C@@H](Cc1ccccc1)C(=O)O; PhLac = O=C(O)[C@@H](O)Cc1ccccc1; 3Pal = N[C@@H](Cc1cccnc1)C(=O)O; Ahp(2) = CCCCC[C@H](N)C(=O)O; Ala(CN) = N#CC[C@H](N)C(=O)O; Cba = N[C@@H](CC1CCC1)C(=O)O; hLeu = CC(C)CC[C@H](N)C(=O)O; NMeAbu = CC[C@H](NC)C(=O)O; αMeC = C[C@](N)(CS)C(=O)O; NMeA = CN[C@@H](C)C(=O)O; Nle = CCCC[C@H](N)C(=O)O; Pra = C#CC[C@H](N)C(=O)O

Molecular target: KRAS-G12D protein (Homo sapiens, UniProt P01116, G12D)
Sequence (P01116 1-188 isoform P01116-2 G12D): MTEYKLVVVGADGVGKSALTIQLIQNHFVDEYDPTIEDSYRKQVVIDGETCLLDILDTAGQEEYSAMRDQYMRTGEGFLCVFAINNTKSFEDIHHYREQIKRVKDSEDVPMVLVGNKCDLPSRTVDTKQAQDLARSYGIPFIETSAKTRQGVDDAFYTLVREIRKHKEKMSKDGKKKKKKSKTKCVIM
Assay: SOS-mediated nucleotide exchange assay (BODIPY-GDP / Tb-streptavidin TR-FRET)
Format: biochemical

SMILES	EC50 (listed as 190) [nM]	EC50 [nM]
COc1ccc(C[C@@H]2NC(=O)[C@H](CC3CCC3)NC(=O)[C@H](Cc3cccnc3)NC(=O)[C@H](CCCNC(=N)N)NC(=O)[C@H](Cc3ccccc3)NC(=O)CSC[C@](C)(C(N)=O)NC(=O)[C@@H]3CCCCCCC[C@H](NC2=O)C(=O)N3C)cc1 (single isomer, unassigned) [SEQ ID NO: 190]	650	
CCCCC[C@@H]1NC(=O)[C@H](Cc2ccc(OC)cc2)NC(=O)[C@H](CC2CCCC2)NC(=O)[C@H](Cc2ccc(NC(=N)N)cc2)NC(=O)[C@H](CCCNC(=N)N)NC(=O)[C@H](Cc2ccccc2)NC(=O)CSC[C@@](C)(C(N)=O)NC(=O)[C@H](Cc2ccccc2)N(C)C1=O [compound 366, cyclo(F-R-Phe4Gn-cPeA-TyrOMe-Ahp-NMeF-aMeCl-ClAc)] ({CH2CO}-FR[Phe(4-guanidino)][Ala(cPent)]Y(Me)[Ahp(2)][NMeF][αMeC]-NH2; thioether N-8)		4.01
CCCC[C@@H]1NC(=O)[C@H](Cc2ccc(OC)cc2)NC(=O)[C@H](CC(C)C)NC(=O)[C@H](Cc2ccc(NC(=N)N)cc2)NC(=O)[C@H](Cc2ccc3nccc(N)c3c2)NC(=O)[C@H](Cc2ccccc2)NC(=O)CSC[C@@H](C(N)=O)NC(=O)[C@H](Cc2ccccc2)N(C)C1=O [compound 29, cyclo(F-6Quin4NH2-Phe4Gn-L-TyrOMe-Nle-NMeF-Cl-ClAc)] ({CH2CO}-F[X78][Phe(4-guanidino)]LY(Me)[Nle][NMeF]C-NH2; thioether N-8)		7790
CC(C)CC[C@@H]1NC(=O)[C@H](Cc2ccccc2F)NC(=O)[C@H](CC2CC2)NC(=O)[C@H](Cc2cncnc2)NC(=O)[C@H](CCC(F)F)N(C)C(=O)[C@H](Cc2ccccc2)OC(=O)C23CC(CNC(=O)[C@H](Cc4ccccc4)N(C)C1=O)(C2)C3 [compound 217, cyclo(FLac-NMeNvaF2-PyrimAla-cPrA-Phe2F-hL-NMeF-amBCP)] (cyclo([Ala(cPr)][Phe(2-F)][hLeu][NMeF][X1][PhLac][NMeNva(5,5-F2)][Ala(pyrimidin-5-yl)]))		173
CCCC[C@@H]1NC(=O)[C@H](Cc2cncnc2)NC(=O)[C@H](C)N(C)C(=O)[C@H](Cc2ccccc2)OC(=O)C23CC(CNC(=O)[C@H](Cc4ccccc4)N(C)C(=O)[C@H](CCC(C)C)NC(=O)[C@H](Cc4ccccc4F)NC1=O)(C2)C3 [compound 132, cyclo(FLac-NMeA-PyrimAla-Nle-Phe2F-hL-NMeF-amBCP)] (cyclo([NMeA][Ala(pyrimidin-5-yl)][Nle][Phe(2-F)][hLeu][NMeF][X1][PhLac]))		7.87
C#CC[C@@H]1NC(=O)[C@H](CC2CC2)NC(=O)[C@H](Cc2cncnc2)NC(=O)[C@H](C)N(C)C(=O)[C@H](Cc2ccccc2)OC(=O)C23CC(CNC(=O)[C@H](Cc4ccccc4)N(C)C(=O)[C@H](CCC(C)C)NC1=O)(C2)C3 [compound 286, cyclo(FLac-NMeA-PyrimAla-cPrA-Pra-hL-NMeF-amBCP)] (cyclo([Ala(cPr)][Pra][hLeu][NMeF][X1][PhLac][NMeA][Ala(pyrimidin-5-yl)]))		1990
CCCC[C@@H]1NC(=O)[C@H](Cc2cccnc2F)NC(=O)[C@H](C)N(C)C(=O)[C@H](Cc2ccccc2)OC(=O)C23CC(CNC(=O)[C@H](Cc4cccnc4)N(C)C(=O)[C@H](CCCC)NC(=O)[C@H](Cc4ccccc4F)NC1=O)(C2)C3 [compound 117, cyclo(FLac-NMeA~3Pal2F-Nle-Phe2F-Nle-NMe3Pal-amBCP)] (cyclo([NMe3Pal][X1][PhLac][NMeA][X46][Nle][Phe(2-F)][Nle]))		1450
CCCCC[C@@H]1NC(=O)[C@H](Cc2ccc(O)cc2)NC(=O)[C@H](CCCC)NC(=O)[C@H](Cc2ccc(O)cc2)NC(=O)[C@H](CCCNC(=N)N)NC(=O)[C@H](Cc2ccccc2)NC(=O)CSC[C@@H](C(N)=O)NC(=O)[C@H](Cc2ccccc2)N(C)C1=O [compound 12, cyclo(F-R-Y-Nle-Y-Ahp-NMeF-Cl-ClAc)] ({CH2CO}-FRY[Nle]Y[Ahp(2)][NMeF]C-NH2; thioether N-8)		1190
CCCC[C@@H]1NC(=O)[C@H](Cc2ccc(O)cc2)NC(=O)[C@H](CC(C)C)NC(=O)[C@H](Cc2ccc(O)cc2)NC(=O)[C@H](CCCNC(=N)N)NC(=O)[C@H](Cc2ccc(F)cc2)NC(=O)CSCCNC(=O)[C@H](Cc2ccccc2)N(C)C1=O [compound 75, cyclo(Phe4F-R-Y-L-Y-Nle-NMeF-Cysteamine-ClAc)] (cyclo(LY[Nle][NMeF][NHCH2CH2SCH2CO][Phe(4-F)]RY))		2510
CCCC[C@@H]1NC(=O)[C@H](Cc2cncnc2)NC(=O)[C@H](C)N(C)C(=O)[C@H](Cc2ccccc2)OC(=O)C23CC(CNC(=O)[C@H](Cc4cccnc4)N(C)C(=O)[C@H](CCCC)NC(=O)[C@H](Cc4ccccc4F)NC1=O)(C2)C3 [compound 237, cyclo(FLac-NMeA-PyrimAla-Nle-Phe2F-Nle-NMe3Pal-amBCP)] (cyclo([NMe3Pal][X1][PhLac][NMeA][Ala(pyrimidin-5-yl)][Nle][Phe(2-F)][Nle]))		33.7
Cc1cccc(C[C@H]2C(=O)NCC34CC(C3)(C4)C(=O)O[C@@H](Cc3ccccc3)C(=O)N(C)[C@@H](C)C(=O)N[C@@H](Cc3cncnc3)C(=O)N[C@@H](CC3CC3)C(=O)N[C@@H](Cc3ccncc3F)C(=O)N[C@@H](CCC(C)C)C(=O)N2C)c1 [compound 279, cyclo(FLac-NMeA-PyrimAla-cPrA-4Pal2F-hL-NMePhe3Me-amBCP)] (cyclo([Ala(cPr)][X13][hLeu][NMePhe(3-Me)][X1][PhLac][NMeA][Ala(pyrimidin-5-yl)]))		3
C[C@H]1C(=O)N[C@@H](Cc2cncnc2)C(=O)N[C@@H](CC2CC2)C(=O)N[C@@H](Cc2ccncc2Cl)C(=O)N[C@@H](CCC(C)(C)F)C(=O)N(C)[C@@H](Cc2ccccc2)C(=O)NCC23CC(C2)(C3)C(=O)O[C@@H](Cc2ccccc2)C(=O)N1C [compound 299, cyclo(FLac-NMeA-PyrimAla-cPrA-4Pal2Cl-hL3F-NMeF-amBCP)] (cyclo([Ala(cPr)][X24][X11][NMeF][X1][PhLac][NMeA][Ala(pyrimidin-5-yl)]))		6.3
CC(C)CC[C@@H]1NC(=O)[C@H](Cc2ccnc(F)c2F)NC(=O)[C@H](CC2CC2)NC(=O)[C@H](Cc2cncnc2)NC(=O)[C@H](C)N(C)C(=O)[C@H](Cc2ccccc2)OC(=O)C23CC(CNC(=O)[C@H](Cc4ccccc4)N(C)C1=O)(C2)C3 [compound 293, cyclo(FLac-NMeA-PyrimAla-cPrA-4Pal23F2-hL-NMeF-amBCP)] (cyclo([Ala(cPr)][X33][hLeu][NMeF][X1][PhLac][NMeA][Ala(pyrimidin-5-yl)]))		259
CCCC[C@@H]1NC(=O)[C@H](Cc2cccnc2)NC(=O)[C@H](CCCNC(=N)N)NC(=O)[C@H](Cc2ccccc2)NC(=O)[C@H]2CC[C@H](C2)NC(=O)[C@H](Cc2ccccc2)N(C)C(=O)[C@H](CCCC)NC(=O)[C@H](Cc2ccc(OC)cc2)NC1=O [compound 202, cyclo(F-R-3Pal-Nle-TyrOMe-Nle-NMeF-dbhcLeu)] (cyclo(FR[3Pal][Nle]Y(Me)[Nle][NMeF][X69]))		949
CCCCC[C@@H]1NC(=O)[C@H](Cc2ccc(OC)cc2)NC(=O)[C@H](CC2CCC2)NC(=O)[C@H](Cc2ccc(NC(=N)N)cc2)NC(=O)[C@H](CCCNC(=N)N)NC(=O)[C@H](Cc2ccccc2)NC(=O)CSC[C@H](C(N)=O)NC(=O)[C@H](Cc2ccccc2)N(C)C1=O [compound 352, cyclo(F-R-Phe4Gn-cBuA-TyrOMe-Ahp-NMeF-dCl-ClAc)] ({CH2CO}-FR[Phe(4-guanidino)][Cba]Y(Me)[Ahp(2)][NMeF][dC]-NH2; thioether N-8)		4.92
CCCC[C@@H]1NC(=O)[C@H](Cc2ccc(OC)cc2)NC(=O)[C@H](CC(C)C)NC(=O)[C@H](Cc2ccc(NC(=N)N)cc2)NC(=O)[C@H](CCCN=C(NC)NC)NC(=O)[C@H](Cc2ccccc2)NC(=O)CSC[C@H](C(N)=O)NC(=O)[C@H](Cc2ccccc2)N(C)C1=O [compound 46, cyclo(F-ArgMeMe-Phe4Gn-L-TyrOMe-Nle-NMeF-dCl-ClAc)] ({CH2CO}-F[Arg(Me2s)][Phe(4-guanidino)]LY(Me)[Nle][NMeF][dC]-NH2; thioether N-8)		1160
CCCC[C@@H]1NC(=O)[C@H](Cc2cccnc2)NC(=O)[C@H](C)N(C)C(=O)[C@H](Cc2ccccc2)OC(=O)C23CC(CNC(=O)[C@H](Cc4cnn(C)c4)N(C)C(=O)[C@H](CCCC)NC(=O)[C@H](Cc4ccccc4F)NC1=O)(C2)C3 [compound 403, cyclo(FLac-NMeA-3Pal-Nle-Phe2F-Nle-NMeAla4PyzlMe-amBCP)] (cyclo([3Pal][Nle][Phe(2-F)][Nle][X36][X1][PhLac][NMeA]))		17
CCCC[C@@H]1NC(=O)[C@H](Cc2ccc(O)cc2)NC(=O)[C@H](CC2CCOCC2)NC(=O)[C@H](Cc2ccc(NC(=N)N)cc2)NC(=O)[C@H](CCCNC(=N)N)NC(=O)[C@H](Cc2cccc3ccccc23)NC(=O)CSC[C@H](C(=O)O)NC(=O)[C@H](Cc2ccccc2)N(C)C1=O [compound 147, cyclo(INal-R-Phe4Gn-AlaTHP4-Y-Nle-NMeF-dC-ClAc)] ({CH2CO}-[1Nal]R[Phe(4-guanidino)][Ala(4-THP)]Y[Nle][NMeF][dC]-OH; thioether N-8)		512
CCCC[C@@H]1NC(=O)[C@H](Cc2cccnc2)NC(=O)[C@H](CC#N)NC(=O)[C@H](Cc2ccccc2)OC(=O)C23CC(CNC(=O)[C@H](Cc4cccnc4)N(C)C(=O)[C@H](CCCC)NC(=O)[C@H](Cc4ccccc4F)NC1=O)(C2)C3 [compound 252, cyclo(FLac-AlaCN-3Pal-Nle-Phe2F-Nle-NMe3Pal-amBCP)] (cyclo([3Pal][Nle][Phe(2-F)][Nle][NMe3Pal][X1][PhLac][Ala(CN)]))		3750
C=C(C)C[C@@H]1NC(=O)[C@H](CCCC)NC(=O)[C@H](Cc2cccnc2)NC(=O)[C@H](CCCNC(=N)N)NC(=O)[C@H](Cc2ccccc2)NC(=O)CSC[C@@](C)(C(N)=O)NC(=O)[C@H](Cc2cccnc2)N(C)C(=O)[C@H](CCCC)NC1=O [compound 44, cyclo(F-R-3Pal-Nle-deHLeu-Nle-NMe3Pal-aMeCl-ClAc)] ({CH2CO}-FR[3Pal][Nle][Leu(4,5-dehydro)][Nle][NMe3Pal][αMeC]-NH2; thioether N-8)		526
CCCC[C@@H]1NC(=O)[C@H](Cc2cccnc2)NC(=O)[C@H](CC)N(C)C(=O)[C@H](Cc2ccccc2)OC(=O)C23CC(CNC(=O)[C@H](Cc4cccnc4)N(C)C(=O)[C@H](CCCC)NC(=O)[C@H](Cc4ccccc4F)NC1=O)(C2)C3 [compound 404, cyclo(FLac-NMeAbu-3Pal-Nle-Phe2F-Nle-NMe3Pal-amBCP)] (cyclo([3Pal][Nle][Phe(2-F)][Nle][NMe3Pal][X1][PhLac][NMeAbu]))		29
